Results on one compound are retold here after patent US9999626B2, “Mineral amino-acid complexes of active agents” (Thetis Pharmaceuticals LLC, priority 2014, dated 2018).

On the set-up of series [1]: species or system rats. Conditions: rat, in vivo, po. From the text:
The results of a single dose, oral pharmacokinetic study in rats for a compound of Formula III (designated TP-252, Mg-Lys2-EPA2) are shown in Table 3 below. One of the parameters shown in […] is the area under the curve (AUC), which is the integral of a plot of concentration of drug in blood plasma against time. The AUC is proportional to the total amount of the active pharmaceutical agent (API) that reaches the blood circulation. In this example, the API (or analyte) is EPA. AUC and Cmax are given for the compound of Formula III, EPA free fatty acid (EPA FFA), and EPA ethyl ester (EPA EE). EPA ethyl ester is the FDA-approved form of EPA.

A short description of series [2]: Physical Stability Study (proton NMR after storage exposed to air). The format is physicochemical. Conditions: room temperature. From the text:
FIG. 1: […] NMR spectrum of magnesium bis-lysinate bis-EPA taken on the day the compound was synthesized (upper trace) and 60 days later (lower trace) with the compound having been exposed to air at room temperature for the entire 60-day period.
Since the compounds of Formula IA and IB, and the compositions comprising same or mixtures of same, described herein are solids (not oils) and they are very stable against oxidative degradation of the fatty acid component, particularly when compared to the free fatty acid or fatty acid ester forms of the fatty acids, which are highly susceptible to oxidative degradation in their liquid forms and consequently tend to degrade when exposed to air or humidity. […] This is evidenced, for example by no significant change in physical properties, such as flow characteristics, or in chemical properties, as measured by NMR spectroscopy, following days of storage in an open vial at room temperature and standard humidity, for example following from about 7 to 14 days or up to 30, up to 60, or up to 90 days of storage.
The compounds of the invention are remarkably stable compared to omega-3 polyunsaturated free fatty acids, which typically show evidence of oxidative degradation with hours of exposure to atmospheric oxygen. […]

Each structure is given as a SMILES string.

In the case of `CC/C=C\C/C=C\C/C=C\C/C=C\C/C=C\CCCC(=O)O.CC/C=C\C/C=C\C/C=C\C/C=C\C/C=C\CCCC(=O)O.NCCCC[C@H](N)C(=O)[O-].NCCCC[C@H](N)C(=O)[O-].[Mg+2]` [TP-252, Magnesium Bis-Lysinate Bis-EPA Dihydrate], in series [1], the “EPA delivered to the blood plasma compared with equivalent doses of EPA free fatty acid or EPA ethyl ester” value is “significantly more EPA”. Moreover, the “chemically stable (no evidence of oxidation or degradation by proton NMR)” value in series [2] is reported as “at least 60 days”.
